{"source": "ChEMBL document CHEMBL5727375", "about": "“Apoptosis signal-regulating kinase 1 inhibitors and methods of use thereof” (2019)", "molecular_target": "T1, Mitogen-activated protein kinase kinase kinase 5 (Homo sapiens, UniProt Q99683)", "T1 sequence (Q99683 whole entry)": "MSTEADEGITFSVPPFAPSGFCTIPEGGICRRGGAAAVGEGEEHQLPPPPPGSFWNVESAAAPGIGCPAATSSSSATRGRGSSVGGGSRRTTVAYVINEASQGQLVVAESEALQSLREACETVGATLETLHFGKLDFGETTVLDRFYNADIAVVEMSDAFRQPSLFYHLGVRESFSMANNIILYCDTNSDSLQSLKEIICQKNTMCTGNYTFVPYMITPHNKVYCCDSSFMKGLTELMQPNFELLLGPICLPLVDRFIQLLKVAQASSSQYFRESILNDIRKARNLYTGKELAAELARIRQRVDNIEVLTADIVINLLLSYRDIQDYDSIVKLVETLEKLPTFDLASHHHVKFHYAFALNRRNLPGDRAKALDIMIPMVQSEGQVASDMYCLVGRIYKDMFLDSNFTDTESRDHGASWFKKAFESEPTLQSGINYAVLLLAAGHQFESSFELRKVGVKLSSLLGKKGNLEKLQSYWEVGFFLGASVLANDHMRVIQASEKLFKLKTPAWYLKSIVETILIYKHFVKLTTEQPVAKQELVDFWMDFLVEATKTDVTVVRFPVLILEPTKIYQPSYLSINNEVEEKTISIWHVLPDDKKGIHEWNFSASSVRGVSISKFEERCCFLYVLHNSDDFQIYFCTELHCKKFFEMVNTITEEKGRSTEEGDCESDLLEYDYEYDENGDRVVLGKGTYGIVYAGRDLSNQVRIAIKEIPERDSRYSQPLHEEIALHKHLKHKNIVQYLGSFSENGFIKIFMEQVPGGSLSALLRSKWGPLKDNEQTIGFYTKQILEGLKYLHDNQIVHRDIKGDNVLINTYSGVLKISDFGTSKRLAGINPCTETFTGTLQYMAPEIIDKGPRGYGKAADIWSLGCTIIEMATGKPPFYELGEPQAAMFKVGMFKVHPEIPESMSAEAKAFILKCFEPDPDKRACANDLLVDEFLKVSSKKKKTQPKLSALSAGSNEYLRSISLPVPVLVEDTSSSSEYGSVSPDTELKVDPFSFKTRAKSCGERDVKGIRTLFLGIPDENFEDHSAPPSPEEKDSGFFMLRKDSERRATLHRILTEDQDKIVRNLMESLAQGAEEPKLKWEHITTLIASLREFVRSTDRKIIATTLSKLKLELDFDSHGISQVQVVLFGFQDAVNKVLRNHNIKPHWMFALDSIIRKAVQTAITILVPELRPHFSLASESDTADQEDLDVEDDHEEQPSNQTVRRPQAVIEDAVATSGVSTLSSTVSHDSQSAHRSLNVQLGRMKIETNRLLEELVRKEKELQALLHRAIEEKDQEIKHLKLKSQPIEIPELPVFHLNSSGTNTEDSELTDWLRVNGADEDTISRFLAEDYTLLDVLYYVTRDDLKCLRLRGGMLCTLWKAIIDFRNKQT", "experiment": "HTRF KinEASE Assay : HTRF KinEASE-STK is a generic method for measuring serine/threonine kinase activities using a time-resolved fluorescence resonance energy transfer (TR-FRET) immunoassay. The IC50 value for each compound was determined in the presence of compound (various concentration from 0 to 10 μM) and a fixed amount of ATP and peptide substrates. The test compound, 1 Um STK3 peptide substrate, and 5 Nm of ASK1 kinase are incubated with kinase reaction buffer containing 50 Mm HEPES Ph 7.5, 0.01% BRIJ-35, 10 Mm MgCl2, and 1 Mm EGTA for 30 minutes. 100 Um ATP is added to start kinase reaction and incubated for 3 hours. The STK3-antibody labeled with Eu3+-Cryptate and 125 Nm streptavidin-XL665 are mixed in a single addition with stop reagents provided by the Cisbio kit used to stop the kinase reaction. Fluorescence is detected using an Envision Multilabeled 2014 reader from PerkinElmer. The Fluorescence is measured at 615 nm (Cryptate) and 665 nm (XL665) and a ratio of 665 nm/615 nm is calculated for each well."}
{"compound": "CCOC(=O)N1Cc2cnc(C(=O)Nc3cccc(-c4nncn4C(C)C)n3)cc2C1", "values": [{"measurement": "IC50", "result": "10 to 100", "unit": "nM"}]}
